Results: patent US20240270821A1, “GIP/GLP1/GCG TRI-RECEPTOR AGONISTS AND USES THEREOF” (priority 2023, published 2024)
Read-outs that look alike come from different tables or passages of the source. Starred links: 1 amine or outer side, 2 acyl side, 3 side chain; linkers in the order of their positions; H or OH if unused. Non-standard residues stand in square brackets, D forms with d. Groups on a side chain read outwards from the residue. No end group written: not given here. *: point of attachment. C18 diacid = O=C(O)CCCCCCCCCCCCCCCCC(=O)*; αMePhe(2-F) = C[C@](N)(Cc1ccccc1F)C(=O)O; γGlu = O=C(O)[C@H](CCC(=O)[*:2])N[*:1]; αMe4Pal = C[C@](N)(Cc1ccncc1)C(=O)O; αMeY = C[C@](N)(Cc1ccc(O)cc1)C(=O)O; 4Pal = N[C@@H](Cc1ccncc1)C(=O)O; αMeL = CC(C)C[C@](C)(N)C(=O)O; αMeS = C[C@](N)(CO)C(=O)O; Orn = NCCC[C@H](N)C(=O)O; AEEA = NCCOCCOCC(=O)O; Aib = CC(C)(N)C(=O)O

Tests used:
Format in all cases: cell-based
[1] = molecular target: T1, hGLP-1R (Homo sapiens, UniProt P43220); assay: Functional cAMP activity in the presence of 1% HSA; details: read-out: cAMP Rel EC50, hGLP-1R
[2] = molecular target: T2, hGIPR (Homo sapiens, UniProt P48546); assay: Functional cAMP activation in the presence of 0.1% casein (no HSA); details: read-out: Relative cAMP EC50, hGIPR;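 further: intracellular cAMP rise after 30 min at 37 °C read by HTRF against a standard curve, scaled between buffer alone (0%) and top control ligand concentration (100%), four-parameter fit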
T2 sequence (P48546 22-466): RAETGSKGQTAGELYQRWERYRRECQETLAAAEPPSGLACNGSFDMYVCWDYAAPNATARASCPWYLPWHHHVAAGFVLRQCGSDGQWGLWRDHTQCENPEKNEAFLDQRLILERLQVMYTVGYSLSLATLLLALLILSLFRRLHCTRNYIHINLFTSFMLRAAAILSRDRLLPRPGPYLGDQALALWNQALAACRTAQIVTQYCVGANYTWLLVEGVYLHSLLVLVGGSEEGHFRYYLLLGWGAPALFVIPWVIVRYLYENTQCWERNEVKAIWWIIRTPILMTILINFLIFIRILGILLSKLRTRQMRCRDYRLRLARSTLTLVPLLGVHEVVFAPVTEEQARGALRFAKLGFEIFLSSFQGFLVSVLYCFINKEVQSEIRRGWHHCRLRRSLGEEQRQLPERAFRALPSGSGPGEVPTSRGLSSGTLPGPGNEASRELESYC

[3] = molecular target: hGcgR (Homo sapiens, UniProt P47871); assay: as above; details: read-out: Relative cAMP EC50, hGcgR;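 further: intracellular cAMP rise after 30 min at 37 °C, read by HTRF against a cAMP standard curve, scaled from buffer only (0%) to maximal control ligand response (100%)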
Protocol: After a 30-minute incubation at 37° C., the resulting increase in intracellular cAMP is quantitatively determined using the CisBio CAMP Dynamic 2 HTRF Assay Kit (62AM4PEJ). Briefly, cAMP levels within the cell are detected by adding the cAMP-d2 conjugate in cell lysis buffer followed by the antibody anti-cAMP-Eu^3+-Cryptate, also in cell lysis buffer.
Intracellular cAMP levels are determined by extrapolation using a standard curve. Dose response curves of compounds are plotted as the percentage of stimulation normalized to minimum (buffer only) and maximum (maximum concentration of each control ligand) values and analyzed using a four parameter non-linear regression fit with a variable slope (Genedata Screener 13). EC50 is the concentration of compound causing half-maximal simulation in a dose response curve. Each relative EC50 value for the Geometric mean calculation is determined from a curve fitting.

[4] = molecular target: T1, hGLP-1R; assay: as above; details: read-out: Relative cAMP EC50, hGLP-1R
[5] = molecular target: human GcgR (Homo sapiens, UniProt P47871); assay: Functional cAMP activity in the presence of 1% HSA; details: read-out: cAMP Rel EC50, hGcgR
[6] = molecular target: T2, hGIPR; assay: Functional cAMP activity in the presence of 1% HSA; details: read-out: cAMP Rel EC50, hGIPR
[7] = HEK-293 clonal cell line, 1% HSA, geometric mean of relative EC50
[8] = in the presence of 0.1% casein (no HSA), geometric mean of relative EC50
[9] = in the presence of 0.1% casein (no HSA), geometric mean
[10] = 0.1% casein, no HSA, geometric mean
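Wherever Relative cAMP EC50, hGLP-1R is given: intracellular cAMP rise after 30 min at 37 °C read by HTRF, normalized between buffer only (0%) and maximal control ligand (100%), four-parameter variable-slope fit.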

human GcgR, sequence (P47871 26-477): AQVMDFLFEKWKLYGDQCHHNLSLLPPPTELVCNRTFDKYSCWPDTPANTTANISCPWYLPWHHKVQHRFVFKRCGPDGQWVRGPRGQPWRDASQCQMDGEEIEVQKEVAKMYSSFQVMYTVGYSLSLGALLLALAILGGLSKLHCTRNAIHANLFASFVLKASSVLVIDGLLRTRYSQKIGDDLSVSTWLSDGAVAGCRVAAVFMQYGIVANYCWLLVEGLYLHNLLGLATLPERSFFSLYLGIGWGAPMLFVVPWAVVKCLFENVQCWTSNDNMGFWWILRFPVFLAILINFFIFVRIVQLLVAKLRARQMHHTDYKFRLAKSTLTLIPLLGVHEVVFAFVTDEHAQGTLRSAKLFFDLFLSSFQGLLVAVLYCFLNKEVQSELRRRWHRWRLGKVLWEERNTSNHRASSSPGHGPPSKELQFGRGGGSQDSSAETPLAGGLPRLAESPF
hGcgR, sequence (P47871 26-477): as above
T1 sequence (P43220 24-463): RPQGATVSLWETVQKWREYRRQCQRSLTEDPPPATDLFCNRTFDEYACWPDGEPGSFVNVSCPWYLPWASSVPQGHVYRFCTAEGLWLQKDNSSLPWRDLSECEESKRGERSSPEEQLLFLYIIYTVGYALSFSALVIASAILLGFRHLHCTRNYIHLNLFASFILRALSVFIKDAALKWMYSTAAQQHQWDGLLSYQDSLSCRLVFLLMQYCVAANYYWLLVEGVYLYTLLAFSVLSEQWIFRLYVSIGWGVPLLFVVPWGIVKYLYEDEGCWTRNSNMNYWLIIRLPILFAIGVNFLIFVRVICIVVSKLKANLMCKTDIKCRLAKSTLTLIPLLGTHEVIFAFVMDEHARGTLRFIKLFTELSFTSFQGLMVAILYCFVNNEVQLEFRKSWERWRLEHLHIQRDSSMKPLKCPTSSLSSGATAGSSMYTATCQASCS

Substance | EC50 [1] | EC50 [5] | EC50 [6] | EC50 [2] | EC50 [3] | EC50 [4] | further results
Y[Aib]QGT[αMePhe(2-F)]TSD[4Pal][αMeS]I[αMeL]LD[Orn]K([AEEA-γGlu-C18 diacid])AA[Aib]EFI[dE][αMeY]LIEGGPSSGEPPPSGTE-NH2 [Example 719] |  |  |  |  |  |  | EC50 [1, 7]: 23.2 nM; EC50 [2, 8]: 0.00998 nM; EC50 [3, 8]: 1.44 nM; EC50 [4, 8]: 0.22 nM; EC50 [5, 7]: 181 nM; EC50 [6, 7]: 0.882 nM
Y[Aib]QGT[αMePhe(2-F)]TSD[4Pal][αMeS]I[αMeL]LD[Orn]K([AEEA-γGlu-C18 diacid])AQ[αMe4Pal]EFI[dE][αMeY]LIEGGPPS[Aib]EPPPEGE-NH2 [Example 1190] | 77.4 nM | 192 nM | 0.954 nM |  |  |  | EC50 [2, 9]: 0.0109 nM; EC50 [3, 9]: 1.68 nM; EC50 [4, 9]: 0.765 nM
Y[Aib]QGT[αMePhe(2-F)]TSD[4Pal][αMeS]I[αMeL]LD[Orn]K([AEEA-γGlu-C18 diacid])AQ[αMe4Pal]EFI[dE][αMeY]LIEGGPPS[Aib]EPPP[Orn]GE-NH2 [Example 1193] | 66.2 nM | 202 nM | 0.803 nM |  |  |  | EC50 [2, 10]: 0.00897 nM; EC50 [3, 10]: 1.56 nM; EC50 [4, 10]: 0.544 nM
Y[Aib]QGT[αMePhe(2-F)]TSD[4Pal][αMeS]I[αMeL]LD[Orn]K([AEEA-γGlu-C18 diacid])AQ[αMe4Pal]EFI[dE][αMeY]LIEGGPPS[Aib][Orn]PPPSGSE-NH2 [Example 1198] | 61 nM | 314 nM | 0.67 nM |  |  |  | EC50 [2, 10]: 0.00663 nM; EC50 [3, 10]: 1.8 nM; EC50 [4, 10]: 0.475 nM
Y[Aib]QGT[αMePhe(2-F)]TSD[4Pal][αMeS]I[αMeL]LD[Orn]K([AEEA-γGlu-C18 diacid])AQ[αMe4Pal]EFI[dE][αMeY]LIEGGPPS[Aib][Orn]PPP[Orn]SE-NH2 [Example 1196] | 45.4 nM | 257 nM | 0.605 nM |  |  |  | EC50 [2, 10]: 0.00756 nM; EC50 [3, 10]: 1.9 nM; EC50 [4, 10]: 0.418 nM
Y[Aib]QGT[αMePhe(2-F)]TSD[4Pal][αMeS]I[αMeL]LD[Orn]K([AEEA-γGlu-C18 diacid])AQ[αMe4Pal]EFI[dE][αMeY]LIEGGPSSGAPPPESE-NH2 [Example 1146] | 40.1 nM | 198 nM | 0.825 nM |  |  |  | EC50 [2, 9]: 0.00628 nM; EC50 [3, 9]: 1.22 nM; EC50 [4, 9]: 0.281 nM
Y[Aib]QGT[αMePhe(2-F)]TSD[4Pal][αMeS]I[αMeL]LD[Orn]K([AEEA-γGlu-C18 diacid])AQ[αMe4Pal]EFI[dE][αMeY]LIEGGPSSGEPPPEGTGE-NH2 [Example 763] | 42.5 nM | 222 nM | 1.16 nM | 0.00719 nM | 1.57 nM | 0.302 nM | 
Y[Aib]QGT[αMePhe(2-F)]TSD[4Pal][αMeS]I[αMeL]LD[Orn]K([AEEA-γGlu-C18 diacid])AQ[αMe4Pal]EFI[dE][αMeY]LIEGGPSSGEPPPESE-NH2 [Example 1147] | 45.4 nM | 167 nM | 0.831 nM |  |  |  | EC50 [2, 9]: 0.00753 nM; EC50 [3, 9]: 1.17 nM; EC50 [4, 9]: 0.347 nM
Y[Aib]QGT[αMePhe(2-F)]TSD[4Pal][αMeS]I[αMeL]LD[Orn]K([AEEA-γGlu-C18 diacid])AQ[αMe4Pal]EFI[dE][αMeY]LIEGGPSSGEPPPSGE-NH2 [Example 1141] | 47.5 nM | 169 nM | 0.816 nM |  |  |  | EC50 [2, 9]: 0.00921 nM; EC50 [3, 9]: 1.15 nM; EC50 [4, 9]: 0.412 nM
Y[Aib]QGT[αMePhe(2-F)]TSD[4Pal][αMeS]I[αMeL]LD[Orn]K([AEEA-γGlu-C18 diacid])AQ[αMe4Pal]EFI[dE][αMeY]LVEGGPSSGAPPPSGGGE-NH2 [Example 769] | 34 nM | 269 nM | 1.02 nM | 0.00852 nM | 1.33 nM | 0.247 nM | 
Y[Aib]QGT[αMePhe(2-F)]TSD[4Pal][αMeS]I[αMeL]LD[Orn]K([AEEA-γGlu-C18 diacid])AQ[αMe4Pal]EFI[dE][αMeY]LVEGGPSSGEPPPSGGGE-NH2 [Example 735] | 40.7 nM | 236 nM | 1.32 nM | 0.012 nM | 1.97 nM | 0.386 nM | 
Y[Aib]QGT[αMePhe(2-F)]TSD[4Pal][αMeS]I[αMeL]LD[Orn]K([AEEA-γGlu-C18 diacid])AQ[αMe4Pal]EFI[dQ][αMeY]LIEGGPSSGAPPPSGS-NH2 [Example 1202] | 23.1 nM | 70.3 nM | 0.471 nM |  |  |  | EC50 [2, 10]: 0.00635 nM; EC50 [3, 10]: 0.5 nM; EC50 [4, 10]: 0.237 nM
Y[Aib]QGT[αMePhe(2-F)]TSD[4Pal][αMeS]I[αMeL]LD[Orn]K([AEEA-γGlu-C18 diacid])YQ[αMe4Pal]EFI[dE][αMeY]LVEGGPSSGAPPPSGS-NH2 [Example 767] | 56.8 nM | 207 nM | 1.51 nM | 0.00792 nM | 1.13 nM | 0.299 nM | 
Y[Aib]QGT[αMePhe(2-F)]TSD[4Pal][αMeS]I[αMeL]LD[Orn]K([Glu-γGlu-C18 diacid])AQ[Aib][Orn]FI[dE][αMeY]LSEGGPSSGEPPPSGTEE-NH2 [Example 564] | 101 nM | 667 nM | 10.8 nM | 0.176 nM | 10.2 nM | 1.33 nM | 
Y[Aib]QGT[αMePhe(2-F)]TSD[4Pal][αMeS]I[αMeL]LD[Orn]K([γGlu-γGlu-C18 diacid])AA[Aib]EFI[dE][αMeY]LIEGGPSSGEPPPSGGGE-NH2 [Example 748] | 22.9 nM | 156 nM | 0.865 nM | 0.0105 nM | 1.42 nM | 0.258 nM | 
Y[Aib]QGT[αMePhe(2-F)]TSD[4Pal][αMeS]I[αMeL]LD[Orn]K([γGlu-γGlu-C18 diacid])AQ[Aib]NFI[dE][αMeY]LQEGGPSSGEPPPEGTE-NH2 [Example 526] | 22.9 nM | 530 nM | 2.12 nM | 0.0364 nM | 8.62 nM | 0.421 nM | 
Y[Aib]QGT[αMePhe(2-F)]TSD[4Pal][αMeS]I[αMeL]LD[Orn]K([γGlu-γGlu-C18 diacid])AQ[Aib]QFI[dE][αMeY]LQEGGPSSGEPPPEGTE-NH2 [Example 528] | 24.3 nM | 474 nM | 1.55 nM | 0.0333 nM | 7 nM | 0.434 nM | 
Y[Aib]QGT[αMePhe(2-F)]TSD[4Pal][αMeS]I[αMeL]LD[Orn]K([γGlu-γGlu-C18 diacid])AQ[Aib][Orn]FI[dE]YLIEGGPSSGEPPPSGTE-NH2 [Example 521] | 24.8 nM | 275 nM | 0.967 nM | 0.0164 nM | 4.04 nM | 0.341 nM | 
Y[Aib]QGT[αMePhe(2-F)]TSD[4Pal][αMeS]I[αMeL]LD[Orn]K([γGlu-γGlu-C18 diacid])AQ[Aib][Orn]FI[dE][αMeY]LAEGGPSSGEPPPSGTEE-NH2 [Example 571] | 42.7 nM | 243 nM | 4.23 nM | 0.0746 nM | 3.27 nM | 0.603 nM | 
Y[Aib]QGT[αMePhe(2-F)]TSD[4Pal][αMeS]I[αMeL]LD[Orn]K([γGlu-γGlu-C18 diacid])AQ[Aib][Orn]FI[dE][αMeY]LQEGGPSSGEPPPEGAEE-NH2 [Example 587] | 31.9 nM | 252 nM | 3.47 nM | 0.0635 nM | 5.38 nM | 0.611 nM | 
Y[Aib]QGT[αMePhe(2-F)]TSD[4Pal][αMeS]I[αMeL]LD[Orn]K([γGlu-γGlu-C18 diacid])AQ[Aib][Orn]FI[dE][αMeY]LQEGGPSSGEPPPEGGEE-NH2 [Example 586] | 29.1 nM | 302 nM | 2.46 nM | 0.0461 nM | 4.58 nM | 0.593 nM | 
Y[Aib]QGT[αMePhe(2-F)]TSD[4Pal][αMeS]I[αMeL]LD[Orn]K([γGlu-γGlu-C18 diacid])AQ[Aib][Orn]FI[dE][αMeY]LQEGGPSSGEPPPEGTE-NH2 [Example 503] | 26.1 nM | 233 nM | 2.02 nM | 0.0518 nM | 3.98 nM | 0.525 nM | 
